In patent US20040106626A1, “6-Membered unsaturated heterocyclic compounds useful for selective inhibition of the coagulation cascade” (Pharmacia Corporation, priority 2001, published 2004):

Tests used:
Assay type in all cases: biochemical
[1] = biological target: T1, recombinant soluble tissue factor and recombinant human factor VIIa (TF-VIIa) (Homo sapiens, UniProt P08709); assay: TF-VIIa assay (chromogenic substrate hydrolysis); details: reported only as less than or greater than 0.1 uM
T1 construct: conversion of coagulation factor VII to VIIa by factor Xa; purchased American Diagnostica, Greenwich CT; host or cells: soluble TF made in house in E. coli
T1 sequence (P08709 213-466 limits assumed): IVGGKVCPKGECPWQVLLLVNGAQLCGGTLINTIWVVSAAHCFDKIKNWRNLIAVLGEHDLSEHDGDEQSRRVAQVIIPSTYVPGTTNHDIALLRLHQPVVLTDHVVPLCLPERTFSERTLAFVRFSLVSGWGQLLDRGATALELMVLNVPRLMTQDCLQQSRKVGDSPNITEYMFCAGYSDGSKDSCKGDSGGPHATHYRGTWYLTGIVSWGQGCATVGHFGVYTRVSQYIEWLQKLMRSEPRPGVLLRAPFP
T1 sequence (P08709 61-212 limits assumed): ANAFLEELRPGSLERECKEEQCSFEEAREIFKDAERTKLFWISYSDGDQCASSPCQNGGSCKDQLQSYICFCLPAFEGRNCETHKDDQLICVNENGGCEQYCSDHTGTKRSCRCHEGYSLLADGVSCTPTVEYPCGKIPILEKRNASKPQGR
T1 sequence (P13726 33-251 partner limits assumed): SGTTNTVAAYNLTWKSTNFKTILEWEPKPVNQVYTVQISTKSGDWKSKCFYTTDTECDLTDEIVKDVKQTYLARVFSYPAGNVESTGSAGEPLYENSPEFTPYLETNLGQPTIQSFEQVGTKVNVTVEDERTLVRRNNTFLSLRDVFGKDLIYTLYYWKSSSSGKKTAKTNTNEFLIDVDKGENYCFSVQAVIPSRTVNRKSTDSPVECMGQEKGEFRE
Summary of the method: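 Chromogenic read at OD405, compared with control for percent inhibition. Substrate N-methylsulfonyl-D-phe-gly-arg-p-nitroaniline at 0.4 mM is cleaved by recombinant human VIIa (2 nM) complexed with soluble TF (100 nM). Buffer: pH 8.0 Tris-HCl 50 mM, CaCl2 5 mM, NaCl 100 mM, BSA 0.1%.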

Human factor Xa = biological target: T2, Human factor Xa (Homo sapiens, UniProt P00742); assay: Xa assay (chromogenic substrate S-2765); details: reported only as less than or greater than 30 uM; read-out: Factor Xa (II) IC50
T2 construct: purchased Enzyme Research Laboratories, South Bend Ind
T2 sequence (P00742 235-488 limits assumed): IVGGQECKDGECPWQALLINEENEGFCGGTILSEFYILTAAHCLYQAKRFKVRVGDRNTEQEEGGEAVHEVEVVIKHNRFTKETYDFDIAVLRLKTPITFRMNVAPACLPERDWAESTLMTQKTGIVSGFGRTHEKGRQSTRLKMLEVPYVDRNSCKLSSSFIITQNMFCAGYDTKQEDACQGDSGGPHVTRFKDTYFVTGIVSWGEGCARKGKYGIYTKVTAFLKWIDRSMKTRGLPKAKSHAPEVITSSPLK
T2 sequence (P00742 41-179 limits assumed): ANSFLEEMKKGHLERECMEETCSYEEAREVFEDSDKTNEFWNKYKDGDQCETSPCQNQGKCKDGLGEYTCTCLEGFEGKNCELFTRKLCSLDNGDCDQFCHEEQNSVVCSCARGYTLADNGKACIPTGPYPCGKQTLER
Summary of the method: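 Chromogenic readout: S-2765 hydrolysis (0.15 mM) by 0.3 nM human FXa was monitored at 405 nm after 60 min at room temperature, with a time-zero background read. Buffer: 50 mM Tris-HCl, pH 8.0, 100 mM NaCl, 0.1% BSA. Inhibition is relative to buffer-only controls.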

Human thrombin = biological target: T3, Human thrombin (Homo sapiens, UniProt P00734); assay: Thrombin assay (chromogenic substrate); details: reported only as less than or greater than 30 uM; read-out: Thrombin (II) IC50
T3 construct: converts prothrombin (II) to thrombin (IIa); purchased Calbiochem, La Jolla, Calif
Summary of the method: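 Percent inhibition derived by comparing OD405 nm of compound-treated and control samples. Thrombin cleavage of a p-nitroanilide chromogenic substrate provides the signal.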

[2] = system: Normal human pooled plasma; assay: Prothrombin time (PT) clotting assay; details: concentration at which prothrombin time is prolonged by 2x normal, reported as less than or greater than 50 uM
Procedure: The prothrombin time (PT) assay is a clotting assay that is used to determine deficiencies of clotting factor activity in the extrinsic pathway. The assay measures time to clotting after the addition of thromboplastin (human tissue factor). Normal human pooled plasma is incubated with 100 uM compound or saline in a coagulation machine. Thromboplastin is added and time to clotting is measured. Compounds with greater than 3×normal PT of 11.0 seconds are further analyzed by concentration response to determine at what concentration the prothrombin time is prolonged by 2×normal.

Compound | IC50 [1] [nM] | IC50 (Human factor Xa) [µM] | IC50 (Human thrombin) [µM] | PT (Prothrombin time) 2xPT [2] [µM]
CC(C)Nc1ncc(-c2cc(N)cc(C(=O)NCc3cccnc3)c2)n(CC(=O)NCc2ccc(C(=N)N)cc2)c1=O [Example 61] | < 100 | > 30 | > 30 | <50.0
CC(C)Nc1ncc(-c2cc(N)cc(C(=O)NCCCc3ccccc3)c2)n(CC(=O)NCc2ccc(C(=N)N)cc2)c1=O [Example 62] | < 100 | > 30 | < 30 | <50.0
CCNC(=O)c1cc(N)cc(-c2cnc(NC(C)C)c(=O)n2CC(=O)NCc2ccc(C(=N)N)cc2)c1 [Example 63] | < 100 | > 30 | > 30 | <50.0
CC(C)COc1cc(N)cc(-c2cnc(NC(C)C)c(=O)n2CC(=O)NCc2ccc(C(=N)N)cc2)c1 [Example 64, N-{4-[amino(imino)methyl]benzyl}-2-[6-(3-amino-5-isobutoxyphenyl)-3-(isopropylamino)-2-oxopyrazin-1 (2H)-yl]acetamide] | < 100 | > 30 | > 30 | <50.0
CC(C)Nc1ncc(-c2cc(N)cc(C(F)(F)F)c2)n(CC(=O)NCc2c(F)c(O)c(C(=N)N)c(F)c2F)c1=O [Example 65] | > 100 | > 30 | > 30 | >50.0
CC(C)Nc1ncc(-c2cc(N)cc(S(=O)(=O)O)c2)n(CC(=O)NCc2ccc(C(=N)N)cc2)c1=O [Example 66, 3-Amino-5-[1-[2-({4-[amino(imino)methyl]benzyl}amino)-2-oxoethyl]-5-(isopropylamino)-6-oxo-1,6-dihydropyrazin-2-yl]benzenesulfonic Acid] | < 100 | > 30 | > 30 | <50.0
CC(C)Nc1ncc(-c2cc(N)cc(C(F)(F)F)c2)n(CC(=O)NCc2ccc(C(=N)N)s2)c1=O [Example 67] | < 100 | < 30 | > 30 | <50.0
CC(C)Nc1ncc(-c2cc(N)cc(N)c2)n(CC(=O)NCc2ccc(C(=N)N)s2)c1=O [Example 68] | < 100 | < 30 | > 30 | <50.0
CC(C)CSc1cc(N)cc(-c2cnc(NC(C)C)c(=O)n2CC(=O)NCc2ccc(C(=N)N)cc2)c1 [Example 70, N-{4-[amino(imino)methyl]benzyl}-2-[6-[3-amino-5-(isobutylthio)phenyl]-3-(isopropylamino)-2-oxopyrazin-1 (2H)-yl]acetamide] | < 100 | > 30 | > 30 | <50.0
CC[C@@H](C)NC(=O)c1cc(N)cc(-c2cnc(NC(C)C)c(=O)n2CC(=O)NCc2ccc(C(=N)N)cc2)c1 [Example 72] | < 100 | > 30 | < 30 | <50.0
CC(C)C[S+]([O-])c1cc(N)cc(-c2cnc(NC(C)C)c(=O)n2CC(=O)NCc2ccc(C(=N)N)cc2)c1 (centres unmarked) [Example 73, N-{4-[amino(imino)methyl]benzyl}-2-[6-[3-amino-5-(isobutylsulfinyl)phenyl]-3-(isopropylamino)-2-oxopyrazin-1 (2H)-yl]acetamide] | < 100 | > 30 | > 30 | <50.0
CC(C)CS(=O)(=O)c1cc(N)cc(-c2cnc(NC(C)C)c(=O)n2CC(=O)NCc2ccc(C(=N)N)cc2)c1 [Example 74, N-{4-[amino(imino)methyl]benzyl}-2-[6-[3-amino-5-(isobutylsulfonyl)phenyl]-3-(isopropylamino)-2-oxopyrazin-1 (2H)-yl]acetamide] | < 100 | > 30 | > 30 | <50.0
CC(C)Nc1ncc(-c2cc(N)cc(CCCc3ccccc3)c2)n(CC(=O)NCc2ccc(C(=N)N)cc2)c1=O [Example 76, N-{4-[amino(imino)methyl]benzyl}-2-[6-[3-amino-5-(3-phenylpropyl)phenyl]-3-(isopropylamino)-2-oxopyrazin-1 (2H)-yl]acetamide] | < 100 | > 30 | > 30 | <50.0
COC(=O)c1cc(N)cc(-c2cnc(NC(C)C)c(=O)n2CC(=O)NCc2ccc(C(=N)N)c(O)c2)c1 [Example 77] | > 100 | > 30 | > 30 | <50.0
CC(C)Nc1ncc(-c2cc(N)cc(NC(=O)OC(C)(C)C)c2)n(CC(=O)NCc2ccc(C(=N)N)c(O)c2)c1=O [Example 78] | > 100 | > 30 | > 30 | <50.0
CC(C)Nc1ncc(-c2cc(N)cc(N)c2)n(CC(=O)NCc2ccc(C(=N)N)c(O)c2)c1=O [Example 79] | > 100 | > 30 | > 30 | <50.0
CC(C)Nc1ncc(-c2cc(N)cc(/C=C/Cc3ccccc3)c2)n(CC(=O)NCc2ccc(C(=N)N)cc2)c1=O [Example 80, N-{4-[amino(imino)methyl]benzyl}-2-[6-{3-amino-5-[(1E)-3-phenylprop-1-enyl]phenyl}-3-(isopropylamino)-2-oxopyrazin-1 (2H)-yl]acetamide] | < 100 | > 30 | > 30 | >50.0
CC(C)Nc1ncc(-c2cc(N)cc(C(=O)N[C@H](C)C3CCCCC3)c2)n(CC(=O)NCc2ccc(C(=N)N)cc2)c1=O.O=C(O)C(F)(F)F [Example 81] | < 100 | > 30 | < 30 | <50.0
CC(C)Nc1ncc(-c2cc(N)cc(C(=O)N[C@@H](C)C3CCCCC3)c2)n(CC(=O)NCc2ccc(C(=N)N)cc2)c1=O.O=C(O)C(F)(F)F [Example 82] | < 100 | > 30 | < 30 | <50.0
CC(C)Nc1ncc(-c2cc(N)cc(C(=O)N[C@@H](C(=O)O)c3ccccc3)c2)n(CC(=O)NCc2ccc(C(=N)N)cc2)c1=O [Example 83] | < 100 | > 30 | > 30 | <50.0
CC(C)Nc1ncc(-c2cc(N)cc(C(=O)N[C@H](C(=O)O)c3ccccc3)c2)n(CC(=O)NCc2ccc(C(=N)N)cc2)c1=O [Example 84] | < 100 | > 30 | > 30 | <50.0
CCC(C)[C@H](NC(=O)c1cc(N)cc(-c2cnc(NC(C)C)c(=O)n2CC(=O)NCc2ccc(C(=N)N)cc2)c1)C(=O)O (some centres unmarked) [Example 85] | < 100 | > 30 | > 30 | <50.0
COC(=O)[C@H](NC(=O)c1cc(N)cc(-c2cnc(NC(C)C)c(=O)n2CC(=O)NCc2ccc(C(=N)N)cc2)c1)c1ccccc1 [Example 86] | < 100 | > 30 | < 30 | <50.0
COC(=O)[C@@H](NC(=O)c1cc(N)cc(-c2cnc(NC(C)C)c(=O)n2CC(=O)NCc2ccc(C(=N)N)cc2)c1)c1ccccc1 [Example 87] | < 100 | > 30 | < 30 | <50.0
CC(C)Nc1ncc(-c2cc(N)cc(NS(=O)(=O)c3ccc(OC(F)(F)F)cc3)c2)n(CC(=O)NCc2ccc(C(=N)N)cc2)c1=O [Example 88] | > 100 | > 30 | > 30 | <50.0
CC(C)Nc1ncc(-c2cc(N)cc(NS(=O)(=O)c3ccccc3C(F)(F)F)c2)n(CC(=O)NCc2ccc(C(=N)N)cc2)c1=O [Example 89] | < 100 | > 30 | > 30 | <50.0
CC(C)Nc1ncc(-c2cc(N)cc(NS(=O)(=O)c3ccc4ccccc4c3)c2)n(CC(=O)NCc2ccc(C(=N)N)cc2)c1=O [Example 90] | < 100 | > 30 | > 30 | <50.0
CC(C)Nc1ncc(-c2cc(N)cc(NS(=O)(=O)c3cccs3)c2)n(CC(=O)NCc2ccc(C(=N)N)cc2)c1=O [Example 91] | < 100 | > 30 | > 30 | <50.0
COc1ccc(S(=O)(=O)Nc2cc(N)cc(-c3cnc(NC(C)C)c(=O)n3CC(=O)NCc3ccc(C(=N)N)cc3)c2)cc1 [Example 92] | < 100 | > 30 | > 30 | <50.0
